Consider 13 compounds from patent US9540338B2, “Substituted cinnamic acid amides for treating pain” (NIPPON ZOKI PHARMACEUTICAL CO., LTD., priority 2012, dated 2017).

Where a name gives a salt, the structure may show the parent alone. Marks after values point to notes of the source that are not given here.

One series relates to Chung model rat. As to the kind of experiment: Analgesic efficacy test (2): Chung model rat, neuropathic pain model (allodynia, von Frey filament). The note with it: mean ± standard error. Format: in vivo, rats. As to the method: An analgesic efficacy test was conducted using a Chung model rat, a neuropathic pain model. Nine-week old Wistar male rats were previously bred as an experimental animal, and a model rat was then prepared in accordance with the method of Kim and Chung (Pain, 50, 355-363, 1992). Specifically, left L5 spinal nerves of rats were exposed under anesthetization with pentobarbital (40 mg/kg, intraperitoneal administration), and firmly ligated with 5-0 silk yarn at L5 dorsal root ganglion peripheral side. The animals were placed in a transparent acrylic cage of which bottom was wire netted The measurement of allodynia was carried out using von Frey filament (manufactured by North Coast Medical Inc.) and a 50% reaction threshold was calculated according to an up-down method, in accordance with a method of Chaplan et al. (J. Neurosci. Method, 53, 55-63, 1994). The 50% reaction thresholds were measured twice before injury of the spinal nerve, and those animals of which thresholds were outside the standard were removed from the operation of spinal nerve injury. On or after 14 days from the spinal nerve injury, a 50% reaction threshold was measured, and those showing thresholds of 1 g or more and less than 4 g were used as experimental animal. The group was constituted by 7 or 8 rats per group so that an average of a 50% reaction threshold for each group would be nearly even.
A solution or suspension prepared by dissolving or suspending a compound of the present invention in a 0.5% (w/v) aqueous CMC-Na solution was orally administered as a test substance in a single dose. Also, a 0.5% (w/v) aqueous CMC-Na solution was administered in the same manner to the control group for nerve injury. The measurements of allodynia were carried out with the passage of time after administration, and a 50% reaction threshold (mean±standard error) of each group at action peak was calculated. In the test for significance difference, Bartlett's test was carried out in the comparison between multiple groups of the group administered with test substance with the control group for nerve injury. In the case of homoscedasticity, Dunnett's multiple comparison test of parametrics, and in the case of heteroscedasticity, Dunnett's multiple comparison test of non-parametrics were used. In all cases, significance difference was considered to be found at P<0.05 (indicated as “*” in the tables).

For another series, the system named is ddY-type mice. As to the kind of experiment: Analgesic efficacy test (1): acetic acid writhing test. The format is in vivo. The note with it: Mus musculus, writhing number, mean ± standard error, 8 mice per group, read-out: Suppressive Rate; for inhibition in vivo at 10 mg/kg: oral single dose 10 mg/kg; for inhibition in vivo at 100 mg/kg: oral single dose 100 mg/kg. The text has this:
A compound of the present invention was orally administered to mice, to carry out an analgesic efficacy test according to acetic acid writhing test. As an experimental animal, 4-week old male ddY-type mice were previously bred, and thereafter 8 mice per one group were used in the experiment. A solution or suspension prepared by dissolving or suspending a compound of the present invention in a 0.5% (w/v) aqueous CMC-Na solution was orally administered as a test substance in a single dose. While, to a control group, a 0.5% (w/v) aqueous CMC-Na solution was administered in the same manner After 25 minutes from administration, the mice were intraperitoneally administered with a 0.7% (v/v) acetic acid/physiological saline at the dose of 10 mL/kg. From 5 minutes thereafter, writhing number in a 10-minute period was counted, and a suppressive rate for each individual (mean±standard error) was calculated by the following formula: […]
In the test for significance difference, Bartlett's test was carried out in the comparison between multiple groups of the group administered with test substance with the control group. In the case of homoscedasticity, Dunnett's multiple comparison test of parametrics, and in the case of heteroscedasticity, Dunnett's multiple comparison test of non-parametrics were used. In addition, in the test of dose dependency, Jonckheere-Terpstra's test was used. In all cases, significance difference was considered to be found at P<0.05 (indicated as “*” in the table).
For orientation: In writhing tests, fewer writhes than in controls are read as antinociception.

Setting [1] is: oral 1 mg/kg, measurement point 30 minute (action peak).
[2] abbreviates: oral 10 mg/kg, measurement point 30 minute (action peak).
Setting [3] is: oral 1 mg/kg, measurement point 90 minute (action peak).
[4] abbreviates: oral 10 mg/kg, measurement point 90 minute (action peak).
Setting [5] is: oral 1 mg/kg, measurement point 60 minute (action peak).
The mark [6] stands for this setting: oral 10 mg/kg, measurement point 60 minute (action peak).

A word on the melting point: it is the temperature of the solid-liquid transition.

Compound `O=C(/C=C/c1ccccc1F)NCc1cccnc1` [Compound 2, (E)-3-(2-Fluorophenyl)-N-(3-pyridylmethyl)-2-propenamide] yielded a melting point of 115 to 116 °C. Further, in the series with Chung model rat (setting [1]), the “50% Reaction Threshold, Group Administered with Test Substance, After Administration” value (from here on “50% Reaction Threshold”) came out at 4.85 ± 0.78 g. For the same compound, the “50% Reaction Threshold” value in the series on Chung model rat (setting [2]) is recorded as 7.76 ± 1.30* g. Further, in the series with ddY-type mice, the inhibition in vivo at 10 mg/kg was 39.9 ± 10.4% and the inhibition in vivo at 100 mg/kg came out at 39.9 ± 10%.

For `O=C(/C=C/c1ccccc1F)NCCc1ccncc1` [Compound 3, (E)-3-(2-Fluorophenyl)-N-[2-(4-pyridyl)ethyl]-2-propenamide], the melting point lay in the range of 95 to 96 °C. Also, the “50% Reaction Threshold” value in the series with Chung model rat (setting [3]) is 6.74 ± 1.04* g. Also, the “50% Reaction Threshold” value in the series on Chung model rat (setting [4]) is reported as 10.06 ± 1.60* g. Further, in the series with ddY-type mice, the inhibition in vivo at 10 mg/kg was found to be 44.4 ± 11.1% and the inhibition in vivo at 100 mg/kg came out at 59 ± 8.1%.

`O=C(/C=C/c1ccccc1F)NCCN1CCCCC1` [Compound 4, (E)-3-(2-Fluorophenyl)-N-[2-(1-piperidyl)ethyl]-2-propenamide] displayed a melting point of 84 to 85 °C. Besides, the “50% Reaction Threshold” value in the series on Chung model rat (setting [1]) turned out to be 3.98 ± 0.21 g. Also, the “50% Reaction Threshold” value with Chung model rat (setting [2]) is listed as 7.35 ± 0.95* g. In the series on ddY-type mice, the inhibition in vivo at 10 mg/kg stood at 47 ± 7.8% and the inhibition in vivo at 100 mg/kg amounted to 49 ± 9.2%.

In turn, `O=C(/C=C/c1ccccc1F)NCCN1CCOCC1` [Compound 5, (E)-3-(2-Fluorophenyl)-N-(2-morpholinoethyl)-2-propenamide] had a melting point of 112 to 113 °C. Also, in the series on Chung model rat (setting [3]), the “50% Reaction Threshold” value is 4.91 ± 0.73 g. Further, the “50% Reaction Threshold” value in the series on Chung model rat (setting [4]) is 8.68 ± 1.91* g. For the same compound, in the series on ddY-type mice, the inhibition in vivo at 10 mg/kg was 34.8 ± 10.3% and the inhibition in vivo at 100 mg/kg is 95.7 ± 3.1%.

`O=C(/C=C/c1ccccc1F)NCCN1CCN(C2CCCCC2)CC1` [Compound 6, (E)-N-[2-(4-Cyclohexylpiperazin-1-yl)ethyl]-3-(2-fluorophenyl)-2-propenamide]: the melting point lay in the range of 113 to 114 °C. The “50% Reaction Threshold” value with Chung model rat (setting [3]) is reported as 10.87 ± 1.24* g. For the same compound, in the series on Chung model rat (setting [4]), the “50% Reaction Threshold” value was 14.06 ± 0.61* g. In the series with ddY-type mice, the inhibition in vivo at 10 mg/kg was 29.6 ± 12.8% and the inhibition in vivo at 100 mg/kg turned out to be 70.4 ± 6.1%.

`O=C(/C=C/c1ccccc1F)NCCCN1CCN(C2CCCCC2)CC1` [Compound 7, (E)-N-[3-(4-Cyclohexylpiperazin-1-yl)propyl]-3-(2-fluorophenyl)-2-propenamide] yielded a melting point of 84 to 85 °C. Also, the “50% Reaction Threshold” value in the series with Chung model rat (setting [3]) turned out to be 9.05 ± 1.80 g. The “50% Reaction Threshold” value with Chung model rat (setting [4]) is given as 12.70 ± 1.16* g. Moreover, in the series with ddY-type mice, the inhibition in vivo at 10 mg/kg stood at 41.5 ± 17.2% and the inhibition in vivo at 100 mg/kg was determined as 68.4 ± 8%.

In the case of `Cn1cccc1CCNC(=O)/C=C/c1ccccc1F` [Compound 8, (E)-3-(2-Fluorophenyl)-N-[2-(1-methyl-1H-pyrrol-2-yl)ethyl]-2-propenamide], the melting point fell in the range of 93 to 94 °C. In the series with Chung model rat (setting [3]), the “50% Reaction Threshold” value came out at 4.37 ± 0.53 g. The “50% Reaction Threshold” value with Chung model rat (setting [4]) is 5.57 ± 1.18* g. Besides, in the series on ddY-type mice, the inhibition in vivo at 10 mg/kg was 8.5 ± 13.9% and the inhibition in vivo at 100 mg/kg worked out at 28.1 ± 8.3%.

`Cl.O=C(/C=C/c1ccccc1F)NCCCN1CCOCC1` [Compound 11, (E)-3-(2-Fluorophenyl)-N-(3-morpholinopropyl)-2-propenamide hydrochloride] had a melting point of 153 to 154 °C. Further, the “50% Reaction Threshold” value in the series on Chung model rat (setting [5]) was 11.69 ± 1.80* g. Moreover, in the series with Chung model rat (setting [6]), the “50% Reaction Threshold” value is 14.27 ± 0.73* g. For the same compound, in the series on ddY-type mice, the inhibition in vivo at 10 mg/kg is 23.2 ± 12.8% and the inhibition in vivo at 100 mg/kg turned out to be 68.9 ± 4.5%.

`CN(C)CCCNC(=O)/C=C/c1ccccc1F.Cl` [Compound 12, (E)-N-(3-Dimethylaminopropyl)-3-(2-fluorophenyl)-2-propenamide hydrochloride] registered a melting point of 99 to 100 °C. Further, the “50% Reaction Threshold” value in the series with Chung model rat (setting [5]) amounted to 4.64 ± 0.70 g. The “50% Reaction Threshold” value with Chung model rat (setting [6]) turned out to be 5.00 ± 1.17 g. Also, in the series with ddY-type mice, the inhibition in vivo at 10 mg/kg was -4.3 ± 12% and the inhibition in vivo at 100 mg/kg worked out at 49.4 ± 14.5%.

As for `Cl.NCCCCNC(=O)/C=C/c1ccccc1F` [Compound 14, (E)-N-(4-Aminobutyl)-3-(2-fluorophenyl)-2-propenamide hydrochloride], the melting point lay in the range of 177 to 178 °C. For the same compound, the “50% Reaction Threshold” value with Chung model rat (setting [5]) is 12.38 ± 1.15* g. The “50% Reaction Threshold” value in the series on Chung model rat (setting [6]) was 13.61 ± 0.96* g. Also, in the series with ddY-type mice, the inhibition in vivo at 10 mg/kg came out at 46.3 ± 11.1% and the inhibition in vivo at 100 mg/kg was found to be 76.8 ± 4.1%.

As for `O=C(/C=C/c1ccccc1F)NCCN1CCNCC1` [Compound 16, (E)-3-(2-Fluorophenyl)-N-[2-(piperazin-1-yl)ethyl]-2-propenamide dihydrochloride], in the series on Chung model rat (setting [3]), the “50% Reaction Threshold” value was found to be 5.48 ± 0.82 g. In addition, the “50% Reaction Threshold” value in the series on Chung model rat (setting [4]) worked out at 7.48 ± 1.30 g. Moreover, in the series with ddY-type mice, the inhibition in vivo at 10 mg/kg was found to be 42.6 ± 9.1% and the inhibition in vivo at 100 mg/kg amounted to 65.5 ± 8.9%.

Compound `O=C(/C=C/c1ccccc1F)NCCc1c[nH]cn1` [Compound 18, (E)-3-(2-Fluorophenyl)-N-[2-(1H-imidazol-4-yl)ethyl]-2-propenamide] gave a melting point of 152 to 153 °C. In the series on Chung model rat (setting [3]), the “50% Reaction Threshold” value was 10.92 ± 1.33* g. For the same compound, the “50% Reaction Threshold” value in the series with Chung model rat (setting [4]) is reported as 11.44 ± 1.95* g. In addition, in the series with ddY-type mice, the inhibition in vivo at 10 mg/kg was 54.3 ± 13.2% and the inhibition in vivo at 100 mg/kg was found to be 62.3 ± 14.6%.

As for `Cl.O=C(/C=C/c1ccccc1F)NCCn1ccnc1` [Compound 21, (E)-3-(2-Fluorophenyl)-N-[2-(imidazol-1-yl)ethyl]-2-propenamide hydrochloride], the “50% Reaction Threshold” value in the series on Chung model rat (oral 0.1 mg/kg, measurement point 90 minute (action peak)) was 6.04 ± 0.89 g; with Chung model rat (oral 0.3 mg/kg, measurement point 90 minute (action peak)), 8.80 ± 1.42* g; in the series on Chung model rat (setting [3]), 11.78 ± 1.20* g. The inhibition in vivo at 10 mg/kg in the series with ddY-type mice amounted to 44.5 ± 11.7%. Besides, the inhibition in vivo at 100 mg/kg in the series on ddY-type mice was 49.7 ± 4.7%.
